US10167262B2, “Herbicidal substituted 3-arylpyrazoles” (FMC CORPORATION, priority 2014, dated 2019)
Like-named read-outs stand apart in the source and are kept apart here.

What was measured:
Type in all cases: in vivo
[1] = test system: lambsquarters (Chenopodium album); experiment: Test C pre-/postemergence greenhouse test, plant response rating 0-100; conditions: Chenopodium album; for pest or weed control at 62 g/ha: 62 g ai/ha; for pest or weed control at 125 g/ha: 125 g ai/ha; for pest or weed control at 250 g/ha: 250 g ai/ha; for pest or weed control at 500 g/ha: 500 g ai/ha
Method in brief: (§1)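 Pre-emergence soil and post-emergence foliar sprays were applied simultaneously to seeded loam–sand pots and to 1–4-leaf plants in peat medium; greenhouse holding lasted 13–15 days, then plants were scored visually from 0 (no effect) to 100 (complete control).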

[2] = test system: velvetleaf (Abutilon theophrasti); experiment: as above; conditions: Abutilon theophrasti; for pest or weed control at 62 g/ha: 62 g ai/ha; for pest or weed control at 125 g/ha: 125 g ai/ha; for pest or weed control at 250 g/ha: 250 g ai/ha; for pest or weed control at 500 g/ha: 500 g ai/ha
Method in brief: as §1

[3] = test system: morningglory (Ipomoea coccinea); experiment: as above; conditions: Ipomoea; for pest or weed control at 62 g/ha: 62 g ai/ha; for pest or weed control at 125 g/ha: 125 g ai/ha; for pest or weed control at 250 g/ha: 250 g ai/ha; for pest or weed control at 500 g/ha: 500 g ai/ha
Method in brief: as §1

[4] = test system: johnsongrass (Sorghum halepense); experiment: as above; conditions: Sorghum halepense; for pest or weed control at 62 g/ha: 62 g ai/ha; for pest or weed control at 125 g/ha: 125 g ai/ha; for pest or weed control at 250 g/ha: 250 g ai/ha; for pest or weed control at 500 g/ha: 500 g ai/ha
Method in brief: as §1

[5] = test system: barnyardgrass (Echinochloa crus-galli); experiment: Test A pre-/postemergence greenhouse herbicide test, visual injury rating 0-100; conditions: for pest or weed control at 500 g/ha: 500 g ai/ha
Method in brief: (§2)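 Visual injury versus untreated controls, scored about 10 days after treatment on a 0 to 100 scale (0 = no effect, 100 = complete control). Applications were preemergence directed soil spray plus postemergence spray at one- to two-leaf stage, 2 to 10 cm plants.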

corn (Zea mays) = experiment: as above; conditions: for plant injury at 500 g/ha: 500 g ai/ha
Method in brief: as §2

[6] = test system: velvetleaf (Abutilon theophrasti); experiment: as above; conditions: for pest or weed control at 500 g/ha: 500 g ai/ha
Method in brief: as §2

[7] = test system: wheat (Triticum aestivum); experiment: as above; conditions: for plant injury at 500 g/ha: 500 g ai/ha
Method in brief: as §2

[8] = test system: pigweed (Amaranthus retroflexus); experiment: as above; conditions: for pest or weed control at 500 g/ha: 500 g ai/ha
Method in brief: as §2

[9] = test system: morningglory (Ipomoea spp.); experiment: as above; conditions: for pest or weed control at 500 g/ha: 500 g ai/ha
Method in brief: as §2

[10] = test system: large (Lg) crabgrass (Digitaria sanguinalis); experiment: as above; conditions: for pest or weed control at 500 g/ha: 500 g ai/ha
Method in brief: as §2

[11] = test system: giant foxtail (Setaria faberii); experiment: as above; conditions: for pest or weed control at 500 g/ha: 500 g ai/ha
Method in brief: as §2

[12] = post-emergence, Postemergence, read-out: Plant response rating (0 to 100), Lambsquarters
[13] = post-emergence, Postemergence, scale 0 to 100
[14] = pre-emergence, Preemergence, read-out: Plant response rating, Lambsquarters
[15] = post-emergence, Postemergence, read-out: Plant response rating (0 to 100), Velvetleaf
[16] = pre-emergence, Preemergence, read-out: Plant response rating, Velvetleaf
[17] = post-emergence, Postemergence, read-out: Plant response rating (0 to 100), Morningglory
[18] = pre-emergence, Preemergence, read-out: Plant response rating, Morningglory
[19] = post-emergence, Postemergence, read-out: Plant response rating (0 to 100), Johnsongrass
[20] = pre-emergence, Preemergence, read-out: Plant response rating, Johnsongrass

Molecule `CCOC(OCC)(c1ccccc1)c1c[nH]nc1-c1cc(Cl)cc(Cl)c1` [Compound 14, 3-(3,5-dichlorophenyl)-4-(diethoxyphenylmethyl)-1H-pyrazole] has a pest or weed control at 62 g/ha [1, 12] of 70%, a pest or weed control at 125 g/ha [1, 12] of 95% and a pest or weed control at 250 g/ha [1, 13] of 100%. For the same molecule, the pest or weed control at 500 g/ha [1, 13] was 100%, the pest or weed control at 62 g/ha [1, 14] was 100% and the pest or weed control at 125 g/ha [1, 14] was 100%. It also gave a pest or weed control at 250 g/ha ([1]; pre-emergence, Preemergence) of 100%, a pest or weed control at 500 g/ha ([1]; pre-emergence, Preemergence) of 100% and a pest or weed control at 62 g/ha [2, 15] of 75%. It also gave a pest or weed control at 125 g/ha [2, 15] of 75%, a pest or weed control at 250 g/ha [2, 13] of 80% and a pest or weed control at 500 g/ha [2, 13] of 85%. It also gave a pest or weed control at 62 g/ha [2, 16] of 75%, a pest or weed control at 125 g/ha [2, 16] of 50% and a pest or weed control at 250 g/ha ([2]; pre-emergence, Preemergence) of 85%. It also gave a pest or weed control at 500 g/ha ([2]; pre-emergence, Preemergence) of 98%, a pest or weed control at 62 g/ha [3, 17] of 0% and a pest or weed control at 125 g/ha [3, 17] of 0%. It also gave a pest or weed control at 250 g/ha [3, 13] of 0%, a pest or weed control at 500 g/ha [3, 13] of 5% and a pest or weed control at 62 g/ha [3, 18] of 0%. The pest or weed control at 125 g/ha [3, 18] was 0%, the pest or weed control at 250 g/ha ([3]; pre-emergence, Preemergence) was 0% and the pest or weed control at 500 g/ha ([3]; pre-emergence, Preemergence) was 0%. For the same molecule, the pest or weed control at 62 g/ha [4, 19] was 0%, the pest or weed control at 125 g/ha [4, 19] was 0% and the pest or weed control at 250 g/ha [4, 13] was 0%. For the same molecule, the pest or weed control at 500 g/ha [4, 13] was 0%, the pest or weed control at 62 g/ha [4, 20] was 0% and the pest or weed control at 125 g/ha [4, 20] was 0%. The pest or weed control at 250 g/ha ([4]; pre-emergence, Preemergence) was 0%, the pest or weed control at 500 g/ha ([4]; pre-emergence, Preemergence) was 0% and the pest or weed control at 125 g/ha ([5]; Echinochloa crus-galli, post-emergence, 240 h, Postemergence, 125 g ai/ha, read-out: Plant response rating (0 to 100 scale), Barnyardgrass) was 0%. For the same molecule, the pest or weed control at 500 g/ha ([5]; Echinochloa crus-galli, post-emergence, 240 h, Postemergence, read-out: Plant response rating (0 to 100 scale), Barnyardgrass) was 0%, the pest or weed control at 500 g/ha ([5]; Echinochloa crus-galli, pre-emergence, 240 h, Preemergence, read-out: Plant response rating (0 to 100 scale), Barnyardgrass) was 0% and the “Barnyardgrass plant response rating (0 = no effect, 100 = complete control)” value ([5]; Preemergence, 125 g ai/ha) was 0. The “Corn plant response rating (0 = no effect, 100 = complete control)” value (corn (Zea mays); Preemergence, 125 g ai/ha) was 0, the plant injury at 125 g/ha (corn (Zea mays); Zea mays, post-emergence, 240 h, Postemergence, 125 g ai/ha, read-out: Plant response rating (0 to 100 scale), Corn) was 0% and the plant injury at 500 g/ha (corn (Zea mays); Zea mays, post-emergence, 240 h, Postemergence, read-out: Plant response rating (0 to 100 scale), Corn) was 0%. It also gave a plant injury at 500 g/ha (corn (Zea mays); Zea mays, pre-emergence, 240 h, Preemergence, read-out: Plant response rating (0 to 100 scale), Corn) of 0%, a pest or weed control at 125 g/ha ([6]; Abutilon theophrasti, post-emergence, 240 h, Postemergence, 125 g ai/ha, read-out: Plant response rating (0 to 100 scale), Velvetleaf) of 80% and a pest or weed control at 500 g/ha ([6]; Abutilon theophrasti, post-emergence, 240 h, Postemergence, read-out: Plant response rating (0 to 100 scale), Velvetleaf) of 90%. For the same molecule, the pest or weed control at 500 g/ha ([6]; Abutilon theophrasti, pre-emergence, 240 h, Preemergence, read-out: Plant response rating (0 to 100 scale), Velvetleaf) was 100%, the “Velvetleaf plant response rating (0 = no effect, 100 = complete control)” value ([6]; Preemergence, 125 g ai/ha) was 50 and the “Wheat plant response rating (0 = no effect, 100 = complete control)” value ([7]; Preemergence, 125 g ai/ha) was 0. For the same molecule, the plant injury at 125 g/ha ([7]; Triticum aestivum, post-emergence, 240 h, Postemergence, 125 g ai/ha, read-out: Plant response rating (0 to 100 scale), Wheat) was 0%, the plant injury at 500 g/ha ([7]; Triticum aestivum, post-emergence, 240 h, Postemergence, read-out: Plant response rating (0 to 100 scale), Wheat) was 0% and the plant injury at 500 g/ha ([7]; Triticum aestivum, pre-emergence, 240 h, Preemergence, read-out: Plant response rating (0 to 100 scale), Wheat) was 0%. For the same molecule, the pest or weed control at 125 g/ha ([8]; Amaranthus retroflexus, post-emergence, 240 h, Postemergence, 125 g ai/ha, read-out: Plant response rating (0 to 100 scale), Pigweed) was 80%, the pest or weed control at 500 g/ha ([8]; Amaranthus retroflexus, post-emergence, 240 h, Postemergence, read-out: Plant response rating (0 to 100 scale), Pigweed) was 90% and the pest or weed control at 500 g/ha ([8]; Amaranthus retroflexus, pre-emergence, 240 h, Preemergence, read-out: Plant response rating (0 to 100 scale), Pigweed) was 100%. For the same molecule, the “Pigweed plant response rating (0 = no effect, 100 = complete control)” value ([8]; Preemergence, 125 g ai/ha) was 70, the pest or weed control at 125 g/ha ([9]; Ipomoea, post-emergence, 240 h, Postemergence, 125 g ai/ha, read-out: Plant response rating (0 to 100 scale), Morningglory) was 0% and the pest or weed control at 500 g/ha ([9]; Ipomoea, post-emergence, 240 h, Postemergence, read-out: Plant response rating (0 to 100 scale), Morningglory) was 0%. For the same molecule, the pest or weed control at 500 g/ha ([9]; Ipomoea, pre-emergence, 240 h, Preemergence, read-out: Plant response rating (0 to 100 scale), Morningglory) was 0%, the “Morningglory plant response rating (0 = no effect, 100 = complete control)” value ([9]; Preemergence, 125 g ai/ha) was 0 and the pest or weed control at 125 g/ha ([10]; Digitaria sanguinalis, post-emergence, 240 h, Postemergence, 125 g ai/ha, read-out: Plant response rating (0 to 100 scale), Crabgrass, Large) was 0%. The pest or weed control at 500 g/ha ([10]; Digitaria sanguinalis, post-emergence, 240 h, Postemergence, read-out: Plant response rating (0 to 100 scale), Crabgrass, Large) was 0%, the pest or weed control at 500 g/ha ([10]; Digitaria sanguinalis, pre-emergence, 240 h, Preemergence, read-out: Plant response rating (0 to 100 scale), Crabgrass, Large) was 0% and the “Crabgrass, Large plant response rating (0 = no effect, 100 = complete control)” value ([10]; Preemergence, 125 g ai/ha) was 0. The “Foxtail, Giant plant response rating (0 = no effect, 100 = complete control)” value ([11]; Preemergence, 125 g ai/ha) was 0, the pest or weed control at 125 g/ha ([11]; Setaria faberi, post-emergence, 240 h, Postemergence, 125 g ai/ha, read-out: Plant response rating (0 to 100 scale), Foxtail, Giant) was 0% and the pest or weed control at 500 g/ha ([11]; Setaria faberi, post-emergence, 240 h, Postemergence, read-out: Plant response rating (0 to 100 scale), Foxtail, Giant) was 0%. It also gave a pest or weed control at 500 g/ha ([11]; Setaria faberi, pre-emergence, 240 h, Preemergence, read-out: Plant response rating (0 to 100 scale), Foxtail, Giant) of 0%.
